94 molecules from the Kinase Knowledgebase extract (Sharma et al. 2016) can be followed below.

PIK3CG (human), sequence (P48736 whole entry, looked up): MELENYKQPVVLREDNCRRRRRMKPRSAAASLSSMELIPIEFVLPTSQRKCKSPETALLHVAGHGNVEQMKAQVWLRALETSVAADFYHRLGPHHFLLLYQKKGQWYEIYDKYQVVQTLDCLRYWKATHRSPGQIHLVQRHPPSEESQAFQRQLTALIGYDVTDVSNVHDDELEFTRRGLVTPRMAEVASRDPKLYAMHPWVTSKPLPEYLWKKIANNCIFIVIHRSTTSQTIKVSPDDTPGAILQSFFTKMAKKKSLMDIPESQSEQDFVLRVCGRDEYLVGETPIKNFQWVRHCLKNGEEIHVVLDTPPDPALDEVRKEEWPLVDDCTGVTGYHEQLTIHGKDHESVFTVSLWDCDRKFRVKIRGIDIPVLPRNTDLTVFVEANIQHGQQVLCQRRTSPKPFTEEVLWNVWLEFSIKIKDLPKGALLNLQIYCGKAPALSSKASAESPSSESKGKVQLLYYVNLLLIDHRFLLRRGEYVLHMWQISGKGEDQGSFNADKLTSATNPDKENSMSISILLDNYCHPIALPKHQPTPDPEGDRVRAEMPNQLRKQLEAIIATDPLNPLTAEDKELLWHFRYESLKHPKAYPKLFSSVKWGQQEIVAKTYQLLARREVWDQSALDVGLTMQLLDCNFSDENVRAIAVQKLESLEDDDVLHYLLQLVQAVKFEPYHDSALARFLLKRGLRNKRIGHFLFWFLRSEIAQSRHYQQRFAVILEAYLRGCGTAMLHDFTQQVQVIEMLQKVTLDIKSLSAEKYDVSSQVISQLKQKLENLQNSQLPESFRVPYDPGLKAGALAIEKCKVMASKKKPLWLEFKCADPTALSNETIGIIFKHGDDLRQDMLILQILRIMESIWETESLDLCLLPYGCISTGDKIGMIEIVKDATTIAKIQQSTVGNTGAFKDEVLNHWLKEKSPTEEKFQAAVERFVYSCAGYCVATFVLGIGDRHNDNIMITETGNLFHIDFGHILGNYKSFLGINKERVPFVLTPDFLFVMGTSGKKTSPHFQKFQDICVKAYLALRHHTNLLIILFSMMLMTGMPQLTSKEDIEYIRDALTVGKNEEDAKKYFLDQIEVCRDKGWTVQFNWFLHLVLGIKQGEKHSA

The experiment has as its target PIK3CG (human) (UniProt P48736). Description: Inhibition of PIK3CG Kinase Activity.
What is called IC50 is the concentration that gives 50% inhibition. A lower IC50 goes with inhibition by little substance. Molecule `CCN(C)S(=O)(=O)c1cncc(-c2ccc3nc(N)nn3c2)c1` displayed an IC50 of under 10 µM.

`Nc1nc2ccc(-c3cncc(S(=O)(=O)NCCN4CCNC4=O)c3)cn2n1` had an IC50 of under 10 µM.

`Nc1nc2ccc(-c3cncc(S(=O)(=O)NC4CCOCC4)c3)cn2n1` displayed an IC50 of under 10 µM.

`Nc1nc2ccc(-c3cncc(S(=O)(=O)N4CCC(F)(F)CC4)c3)cn2n1` yielded a half-inhibitory concentration (IC50) of under 10 µM.

`CC(C)CCNS(=O)(=O)c1cncc(-c2ccc3nc(N)nn3c2)c1`: the IC50 was under 10 µM.

The molecule `Nc1nc2ccc(-c3cncc(S(=O)(=O)N4CCC4)c3)cn2n1` returned an IC50 of under 10 µM.

Take `Nc1nc2ccc(-c3cncc(S(=O)(=O)NCC4CCC4)c3)cn2n1`: the IC50 was under 10 µM.

Molecule `Nc1nc2ccc(-c3cncc(S(=O)(=O)NC4CC4)c3)cn2n1` came in with an IC50 of under 10 µM.

Molecule `CC(C)(NS(=O)(=O)c1cncc(-c2ccc3nc(N)nn3c2)c1)c1ccc(F)cc1` gave an IC50 of under 10 µM.

Turning to `Nc1nc2ccc(-c3cncc(S(=O)(=O)Nc4ccc(Cl)cc4)c3)cn2n1`, the IC50 is under 10 µM.

The molecule `Nc1nc2ccc(-c3ccc4c(c3)OCCO4)cn2n1` showed an IC50 of under 10 µM.

As to `Nc1nc2ccc(-c3cncc(S(=O)(=O)N4CCC(F)CC4)c3)cn2n1`, the half-inhibitory concentration (IC50) was under 10 µM.

As to `Nc1nc2ccc(-c3cncc(S(=O)(=O)Nc4ccccc4C(F)(F)F)c3)cn2n1`, the 50% inhibitory concentration (IC50) was under 10 µM.

Regarding `Nc1nc2ccc(-c3cncc(Cl)c3)cn2n1`, the IC50 was under 10 µM.

`CN(c1cccc(C(F)(F)F)c1)S(=O)(=O)c1cncc(-c2ccc3nc(N)nn3c2)c1`: the IC50 is under 10 µM.

With `Nc1nc2ccc(-c3cncc(S(=O)(=O)Cc4ccccc4)c3)cn2n1`, the IC50 is under 10 µM.

For the molecule `CCCCN(C)S(=O)(=O)c1cncc(-c2ccc3nc(N)nn3c2)c1`, the IC50 is under 10 µM.

For `Nc1nc2ccc(-c3cncc(S(=O)(=O)NCCC(F)(F)F)c3)cn2n1`, the IC50 was under 10 µM.

As for `Nc1nc2ccc(-c3cncc(S(=O)(=O)Nc4cc(F)cc(F)c4)c3)cn2n1`, the IC50 is under 10 µM.

In the case of `Nc1nc2ccc(-c3cncc(S(=O)(=O)Nc4ccc(F)cc4)c3)cn2n1`, the IC50 is under 10 µM.

`COc1ccc(-c2cc(Cl)c3nc(N)nn3c2)cc1OC` came in with an IC50 of under 10 µM.

With `Nc1nc2ccc(-c3cncc(S(=O)(=O)N4Cc5ccccc5C4)c3)cn2n1`, the IC50 was under 10 µM.

`Nc1nc2c(F)cc(-c3cncc(S(=O)(=O)NCC(F)(F)F)c3)cn2n1` came in with an IC50 of under 10 µM.

On to `NC(=O)c1ccc(-c2ccc3nc(N)nn3c2)cc1`, for which the IC50 is under 10 µM.

For the molecule `CCCCN(Cc1ccccc1)S(=O)(=O)c1cncc(-c2ccc3nc(N)nn3c2)c1`, the IC50 was under 10 µM.

In turn, `Nc1nc2ccc(-c3cncc(NS(=O)(=O)c4ccccc4C(F)(F)F)c3)cn2n1` registered an IC50 of under 10 µM.

`Nc1nc2ccc(-c3cncc(S(=O)(=O)N4CCCCCC4)c3)cn2n1` displayed a half-inhibitory concentration (IC50) of under 10 µM.

`CC(C)COc1cncc(-c2ccc3nc(N)nn3c2)c1` had an IC50 of under 10 µM.

For `Nc1nc2ccc(-c3cncc(S(=O)(=O)Nc4cccc(OC(F)(F)C(F)F)c4)c3)cn2n1`, the IC50 is under 10 µM.

Consider `CCCCNS(=O)(=O)c1cncc(-c2ccc3nc(N)nn3c2)c1`, for which the IC50 is under 10 µM.

The molecule `CC(C)c1cccc(NS(=O)(=O)c2cncc(-c3ccc4nc(N)nn4c3)c2)c1` displayed an IC50 of under 10 µM.

The molecule `Nc1nc2ccc(-c3cccc(O)c3)cn2n1` gave an IC50 of under 10 µM.

`CC(C)(C)NS(=O)(=O)c1cncc(-c2ccc3nc(N)nn3c2)c1`: the IC50 is under 10 µM.

In turn, `Nc1nc2ccc(-c3cncc(NS(=O)(=O)c4cccc5ccccc45)c3)cn2n1` showed an IC50 of under 10 µM.

`COc1ccc(NS(=O)(=O)c2cncc(-c3ccc4nc(N)nn4c3)c2)cc1` showed an IC50 of under 10 µM.

In turn, `Nc1nc2ccc(-c3ccc4c(c3)OCO4)cn2n1` gave an IC50 of under 10 µM.

For `CC(=O)Nc1cccc(-c2ccc3nc(N)nn3c2)c1`, the IC50 is under 10 µM.

Consider `Nc1nc2ccc(-c3cncc(NS(=O)(=O)c4ccc(C(F)(F)F)cc4)c3)cn2n1`, for which the IC50 was under 10 µM.

Take `CCNS(=O)(=O)c1cncc(-c2ccc3nc(N)nn3c2)c1`: the IC50 was under 10 µM.

As to `CN(C)C(=O)CNS(=O)(=O)c1cncc(-c2ccc3nc(N)nn3c2)c1`, the IC50 is under 10 µM.

Regarding `Nc1nc2ccc(-c3cncc(NS(=O)(=O)Cc4ccccc4C(F)(F)F)c3)cn2n1`, the IC50 is under 10 µM.

In turn, `CC(C)NS(=O)(=O)c1cncc(-c2cc(F)c3nc(N)nn3c2)c1` displayed an IC50 of under 10 µM.

Molecule `COc1cc(-c2ccc3nc(N)nn3c2)ccc1O` showed an IC50 of under 10 µM.

As to `Nc1nc2ccc(-c3cncc(S(=O)(=O)NC4CCCCC4)c3)cn2n1`, the IC50 was under 10 µM.

`Nc1nc2ccc(-c3cccc(S(=O)(=O)NCC(=O)O)c3)cn2n1`: the IC50 was under 10 µM.

In the case of `Nc1nc2ccc(-c3cccc(C(F)(F)F)c3)cn2n1`, the IC50 is under 10 µM.

Molecule `Nc1nc2ccc(-c3cncc(S(=O)(=O)NCc4ccccc4)c3)cn2n1` returned an IC50 of under 10 µM.

Turning to `Nc1nc2ccc(-c3cncc(OCc4ccccc4)c3)cn2n1`, the IC50 was under 10 µM.

The molecule `Nc1nc2ccc(-c3cncc(SCc4ccccc4)c3)cn2n1` registered an IC50 of under 10 µM.

On to `Nc1nc2ccc(-c3cncc(S(=O)(=O)Nc4ccccc4F)c3)cn2n1`, for which the IC50 was under 10 µM.

`Nc1nc2ccc(-c3cccc(S(=O)(=O)NCCCCC(=O)O)c3)cn2n1` had an IC50 of under 10 µM.

As for `CC(C)(C)S(=O)(=O)c1cncc(-c2ccc3nc(N)nn3c2)c1`, the IC50 was under 10 µM.

Take `Nc1nc2ccc(-c3cncc(S(=O)(=O)Nc4cc(C(F)(F)F)cc(C(F)(F)F)c4)c3)cn2n1`: the IC50 is under 10 µM.

Turning to `Nc1nc2ccc(-c3cncc(S(=O)(=O)NCC4CC4)c3)cn2n1`, the IC50 was under 10 µM.

`Nc1nc2ccc(-c3cncc(S(=O)(=O)NCC4CCOCC4)c3)cn2n1` returned an IC50 of under 10 µM.

`CN(Cc1cccc(Cl)c1Cl)S(=O)(=O)c1cncc(-c2ccc3nc(N)nn3c2)c1` returned a 50% inhibitory concentration (IC50) of under 10 µM.

For `CC(C)c1ccc(NS(=O)(=O)c2cncc(-c3ccc4nc(N)nn4c3)c2)cc1`, the half-inhibitory concentration (IC50) is under 10 µM.

Turning to `CCC(CC)CNS(=O)(=O)c1cncc(-c2ccc3nc(N)nn3c2)c1`, the IC50 was under 10 µM.

`Nc1nc2ccc(-c3cncc(NS(=O)(=O)Cc4ccc(Cl)cc4)c3)cn2n1` returned an IC50 of under 10 µM.

`CC(C)CNS(=O)(=O)c1cncc(-c2ccc3nc(N)nn3c2)c1` had an IC50 of under 10 µM.

`Nc1nc2ccc(-c3cncnc3)cn2n1` registered an IC50 of under 10 µM.

For the molecule `CS(=O)(=O)c1cccc(-c2cc(F)c3nc(N)nn3c2)c1`, the IC50 was under 10 µM.

`Nc1nc2ccc(-c3cncc(S(=O)(=O)N4CCNCC4)c3)cn2n1` displayed a 50% inhibitory concentration (IC50) of under 10 µM.

In turn, `Nc1nc2ccc(-c3cncc(NS(=O)(=O)c4ccc(Cl)cc4)c3)cn2n1` showed an IC50 of under 10 µM.

As for `Nc1nc2ccc(-c3cncc(S(=O)(=O)Nc4cccc(OC(F)F)c4)c3)cn2n1`, the IC50 is under 10 µM.

In turn, `COc1cccc(-c2ccc3nc(N)nn3c2)c1` registered an IC50 of under 10 µM.

`Nc1nc2ccc(-c3cncc(S(=O)(=O)Nc4ccccc4)c3)cn2n1` returned an IC50 of under 10 µM.

Take `Nc1nc2ccc(-c3cncc(S(=O)(=O)NCc4cccc(Cl)c4Cl)c3)cn2n1`: the IC50 is under 10 µM.

The molecule `N#Cc1cccc(-c2ccc3nc(N)nn3c2)c1` came in with an IC50 of under 10 µM.

`CC(C)(C)NC(=O)c1cncc(-c2ccc3nc(N)nn3c2)c1` yielded an IC50 of under 10 µM.

`CC(C)(C)NS(=O)(=O)c1cncc(-c2cc(F)c3nc(N)nn3c2)c1` had an IC50 of under 10 µM.

On to `Nc1nc2ccc(-c3cccc(C(=O)O)c3)cn2n1`, for which the IC50 is under 10 µM.

Molecule `COc1ccc(-c2ccc3nc(N)nn3c2)cc1O` displayed an IC50 of under 10 µM.

`Nc1nc2ccc(-c3cncc(NS(=O)(=O)c4cccc(OC(F)(F)F)c4)c3)cn2n1`: the IC50 was under 10 µM.

Molecule `CCNc1cccc(-c2ccc3nc(N)nn3c2)c1` registered an IC50 of under 10 µM.

For `CS(=O)(=O)c1cncc(-c2ccc3nc(N)nn3c2)c1`, the 50% inhibitory concentration (IC50) is under 10 µM.

Molecule `COc1ccc(-c2ccc3nc(N)nn3c2)cc1OC` had an IC50 of under 10 µM.

In turn, `Nc1nc2ccc(-c3cncc(NS(=O)(=O)c4cccc(C(F)(F)F)c4)c3)cn2n1` gave an IC50 of under 10 µM.

For the molecule `Nc1nc2ccc(-c3cncc(S(=O)(=O)Nc4cccc(F)c4)c3)cn2n1`, the IC50 is under 10 µM.

Take `Nc1nc2ccc(-c3ccc(S(N)(=O)=O)cc3)cn2n1`: the half-inhibitory concentration (IC50) was under 10 µM.

`COc1ccc(-c2cc(F)c3nc(N)nn3c2)cc1OC` registered an IC50 of under 10 µM.

Molecule `CC(C)(C)CS(=O)(=O)c1cncc(-c2ccc3nc(N)nn3c2)c1` displayed a 50% inhibitory concentration (IC50) of under 10 µM.

`Nc1nc2ccc(-c3cn[nH]c3)cn2n1` gave a 50% inhibitory concentration (IC50) of under 10 µM.

Regarding `CCN(C)S(=O)(=O)c1cncc(-c2cc(F)c3nc(N)nn3c2)c1`, the IC50 is under 10 µM.

The molecule `Nc1nc2ccc(-c3cncc(S(=O)(=O)NCC4CCCC4)c3)cn2n1` registered a half-inhibitory concentration (IC50) of under 10 µM.

Regarding `Nc1nc2ccc(-c3cncc(S(N)(=O)=O)c3)cn2n1`, the IC50 was under 10 µM.

Take `Nc1nc2c(F)cc(-c3cncc(S(=O)(=O)N4CCC4)c3)cn2n1`: the IC50 was under 10 µM.

The molecule `Nc1nc2ccc(-c3cncc(S(=O)(=O)N4CCc5ccccc5C4)c3)cn2n1` yielded an IC50 of under 10 µM.

For `COc1ccc(-c2cn3nc(N)nc3cc2C)cc1OC`, the 50% inhibitory concentration (IC50) was under 10 µM.

As for `Nc1nc2ccc(-c3cncc(S(=O)(=O)NCC4CCCCCC4)c3)cn2n1`, the IC50 is under 10 µM.

The molecule `COc1ccc(-c2ccc3nc(NC(N)=O)nn3c2)cc1OC` returned an IC50 of under 10 µM.

On to `CC(C)(C)CNS(=O)(=O)c1cncc(-c2ccc3nc(N)nn3c2)c1`, for which the IC50 is under 10 µM.

On to `CC(C)(NS(=O)(=O)c1cncc(-c2ccc3nc(N)nn3c2)c1)C(F)(F)F`, for which the IC50 was under 10 µM.

Consider `COc1ccc(-c2ccc3nc(N)nn3c2)cc1`, for which the IC50 was under 10 µM.
